According to PMC7281298, “Exploring Kinase Inhibition Properties of 9H-pyrimido[5,4-b]- and [4,5-b]indol-4-amine Derivatives” (Pharmaceuticals, 2020):
Read-outs that look alike come from different tables or passages of the source.

Legend:
[1] = target: CDK5/p25 (Homo sapiens, UniProt Q00535); test: Kinase inhibition assay, CDK5/p25; format: biochemical; conditions: for IC50: average of triplicate determination (<10% variation), read-out: Kinase inhibitory potency (IC50) CDK5/p25
Description: (§1) The inhibitory potency of the synthesized pyrimido[4,5-b]indol-4-amines and pyrimido[5,4-b]indol-4-amines towards CDK5/p25, CK1δ/ε, DYRK1A, and GSK-3α/β was investigated according preceding procedures.
(§2) Buffers, kinase preparations, and assays were performed as described in ref. [12, 13, 14] according methods initially published in previous works.

[2] = target: CK1δ/ε; test: Kinase inhibition assay, CK1δ/ε; format: biochemical; conditions: for IC50: average of triplicate determination (<10% variation), read-out: Kinase inhibitory potency (IC50) CK1δ/ε
Description: as §1, §2

[3] = target: T1, DYRK1A (Homo sapiens, UniProt Q13627); test: Kinase inhibition assay, DYRK1A; format: biochemical; conditions: for IC50: read-out: Kinase inhibitory potency (IC50) DYRK1A
Description: as §1, §2

[4] = target: GSK-3α/β; test: Kinase inhibition assay, GSK-3α/β; format: biochemical; conditions: for IC50: average of triplicate determination (<10% variation), read-out: Kinase inhibitory potency (IC50) GSK-3α/β
Description: as §1, §2

[5] = system: CK1δ/ε; parameters: method as in PMID 23237976, PMID 23124214, PMID 25549552; conditions: already published data, cited from earlier work; for IC50: thieno[2,3-d]pyrimidin-4-amine congeners
[6] = target: T1, DYRK1A; parameters: method as in PMID 23237976, PMID 23124214, PMID 25549552; conditions: thieno[2,3-d]pyrimidin-4-amine congeners, already published data; cited from earlier work
[7] = average of triplicate determination (<10% variation)

Sequence of CDK5/p25 (Q00535 whole entry, species assumed): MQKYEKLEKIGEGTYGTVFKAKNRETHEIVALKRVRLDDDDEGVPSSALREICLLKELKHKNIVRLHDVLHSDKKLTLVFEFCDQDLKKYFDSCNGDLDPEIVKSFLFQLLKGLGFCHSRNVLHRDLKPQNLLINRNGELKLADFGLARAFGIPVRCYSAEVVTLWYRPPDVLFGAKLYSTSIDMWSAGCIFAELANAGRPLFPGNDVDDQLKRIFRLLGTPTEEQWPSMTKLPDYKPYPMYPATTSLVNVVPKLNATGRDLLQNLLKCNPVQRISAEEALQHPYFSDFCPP
Sequence of CDK5/p25 (Q15078 99-307 partner limits assumed, species assumed): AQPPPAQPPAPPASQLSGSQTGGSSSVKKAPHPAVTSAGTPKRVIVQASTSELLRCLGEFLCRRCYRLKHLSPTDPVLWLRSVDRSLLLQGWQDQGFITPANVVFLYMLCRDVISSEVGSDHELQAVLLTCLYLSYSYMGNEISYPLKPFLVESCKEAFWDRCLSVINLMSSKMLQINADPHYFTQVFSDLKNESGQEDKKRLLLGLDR

| Compound | IC50 [1] [µM] | IC50 [2] [µM] | IC50 [3, 7] [µM] | IC50 [4] [µM] | Inhibitory activity against CDK5/p25 (in words) [1] | Inhibitory activity against GSK3α/β (in words) [4] | Inhibitory activity against CK1δ/ε (in words) [2] | Inhibitory activity against DYRK1A (in words) [3] | Activity against CK1 (in words) [5] | IC50 [5] [µM] | IC50 [6] [µM] | IC50 [3] [µM] |
| --- | --- | --- | --- | --- | --- | --- | --- | --- | --- | --- | --- | --- |
| Cn1c2ccccc2c2c(N)ncnc21 [Compound 3b, 9-Methyl-9H-pyrimido[4,5-b]indol-4-amine] | > 10 | 2.5 | > 10 | > 10 |  |  |  |  |  |  |  |  |
| Nc1ncnc2c3cc([N+](=O)[O-])ccc3n(Cc3ccccc3)c12 [Compound 2d, 5-Benzyl-8-nitro-5H-pyrimido[5,4-b]indol-4-amine] | > 10 | > 10 | > 10 | > 10 |  |  |  |  |  |  |  |  |
| CCn1c2cc([N+](=O)[O-])ccc2c2c(N)ncnc21 [Compound 4c, 9-Ethyl-7-nitro-9H-pyrimido[4,5-b]indol-4-amine] | > 10 | 1.6 | 5.9 | > 10 |  |  |  |  |  |  |  |  |
| COc1ccc2c(c1)[nH]c1c(C)nccc12 [Compound 11a, harmine, reference compound] |  | 1.5 |  | > 10 | definitely inactive | definitely inactive |  |  |  |  |  |  |
| Nc1ncnc2c1[nH]c1ccc([N+](=O)[O-])cc12 [Compound 2a, 8-Nitro-5H-pyrimido[5,4-b]indol-4-amine] | > 10 | > 10 | 7.6 | > 10 |  |  | no inhibition | low micromolar activity |  |  |  |  |
| COc1ccc2c3ccnc(C)c3n(C)c2c1 [Compound 11b, 7-Methoxy-1,9-dimethyl-β-carboline] | > 10 | > 10 |  | > 10 | totally inactive | totally inactive | totally inactive |  |  |  |  |  |
| Nc1ncnc2c1c1ccc([N+](=O)[O-])cc1n2Cc1ccccc1 [Compound 4d, 9-Benzyl-7-nitro-9H-pyrimido[4,5-b]indol-4-amine] | > 10 | > 10 | > 10 | > 10 |  |  |  |  |  |  |  |  |
| Nc1ncnc2c1[nH]c1ccccc12 [Compound 1a, 5H-Pyrimido[5,4-b]indol-4-amine] | > 10 | 2 | 2.2 | > 10 |  |  |  |  |  |  |  |  |
| Nc1ncnc2c1sc1cccnc12 [Compound 14] |  |  |  |  |  |  |  |  | micromolar and submicromolar activity | 1.8 | 6 |  |
| Cn1c2ccccc2c2ncnc(N)c21 [Compound 1b, 5-Methyl-5H-pyrimido[5,4-b]indol-4-amine] | > 10 | 4 | 5.8 | > 10 |  |  |  |  |  |  |  |  |
| Nc1ncnc2c1sc1nccnc12 [Compound 13] |  |  |  |  |  |  |  |  | micromolar and submicromolar activity | 2.4 | > 10 |  |
| Nc1ncnc2c1c1ccccc1n2Cc1ccccc1 [Compound 3d, 9-Benzyl-9H-pyrimido[4,5-b]indol-4-amine] | > 10 | 2.7 | > 10 | > 10 |  |  |  |  |  |  |  |  |
| CCn1c2ccccc2c2c(N)ncnc21 [Compound 3c, 9-Ethyl-9H-pyrimido[4,5-b]indol-4-amine] | > 10 | 1.6 | 9.8 | > 10 |  |  |  |  |  |  |  |  |
| Nc1ncnc2c1sc1ncccc12 [Compound 15] |  |  |  |  |  |  |  |  | micromolar and submicromolar activity | 0.031 | > 10 |  |
| Nc1ncnc2c3ccccc3n(Cc3ccccc3)c12 [Compound 1d, 5-Benzyl-5H-pyrimido[5,4-b]indol-4-amine] | > 10 | 0.6 | > 10 | > 10 |  |  |  | lack of activity |  |  |  |  |
| CCn1c2cc(OC)ccc2c2ccnc(C)c21 [Compound 11c, 9-Ethyl-7-methoxy-1-methyl-β-carboline] | > 10 | > 10 |  | > 10 | totally inactive | totally inactive | totally inactive |  |  |  |  | 0.037 |
| Nc1ncnc2[nH]c3cc([N+](=O)[O-])ccc3c12 [Compound 4a, 7-Nitro-9H-pyrimido[4,5-b]indol-4-amine] | > 10 | 3.5 | 7.6 | > 10 |  |  |  |  |  |  |  |  |
| COc1ccc2c3ccnc(C)c3n(Cc3ccccc3)c2c1 [Compound 11d, 9-Benzyl-7-methoxy-1-methyl-β-carboline] | > 10 | > 10 | 0.059 | > 10 | totally inactive | totally inactive | totally inactive |  |  |  |  |  |
| CCn1c2ccc([N+](=O)[O-])cc2c2ncnc(N)c21 [Compound 2c, 5-Ethyl-8-nitro-5H-pyrimido[5,4-b]indol-4-amine] | > 10 | > 10 | > 10 | > 10 |  |  |  |  |  |  |  |  |
| Cn1c2cc([N+](=O)[O-])ccc2c2c(N)ncnc21 [Compound 4b, 9-Methyl-7-nitro-9H-pyrimido[4,5-b]indol-4-amine] | > 10 | 2.8 | > 10 | > 10 |  |  |  |  |  |  |  |  |
| Cn1c2ccc([N+](=O)[O-])cc2c2ncnc(N)c21 [Compound 2b, 5-Methyl-8-nitro-5H-pyrimido[5,4-b]indol-4-amine] | > 10 | > 10 | > 10 | > 10 |  |  |  |  |  |  |  |  |
| Nc1ncnc2c1sc1ccccc12 [Compound 12] |  |  |  |  |  |  |  |  |  | 0.79 | 33 |  |
| Nc1ncnc2[nH]c3ccccc3c12 [Compound 3a, 9H-Pyrimido[4,5-b]indol-4-amine] | 6 | 0.7 | 3.1 | > 10 |  |  |  |  |  |  |  |  |
| CCn1c2ccccc2c2ncnc(N)c21 [Compound 1c, 5-Ethyl-5H-pyrimido[5,4-b]indol-4-amine] | > 10 | 2.8 | 4.1 | > 10 |  |  |  |  |  |  |  |  |
